According to US11535594B2, “Microbiocidal picolinamide derivatives” (Syngenta Participations AG, priority 2017, dated 2022):

Assays:
[1] = system: Glomerella Lagenarium (Colletotrichum lagenarium); experiment: Glomerella lagenarium (Colletotrichum lagenarium) / liquid culture (anthracnose); format: cell-based; details: Colletotrichum orbiculare, PDB potato dextrose broth, 24° C., 3 to 4 days after application, compared to untreated checks, read-out: disease control (inhibition of growth, photometric)
Procedure: (§1) Glomerella Lagenarium (Colletotrichum lagenarium)/Liquid Culture (Anthracnose) Conidia of the fungus from cryogenic storage are directly mixed into nutrient broth (PDB potato dextrose broth). After placing a (DMSO) solution of test compound into a microtiter plate (96-well format), the nutrient broth containing the fungal spores is added. The test plates are incubated at 24° C. and the inhibition of growth is measured photometrically 3 to 4 days after application.

[2] = system: Monographella nivalis (Microdochium nivale); experiment: Monographella nivalis (Microdochium nivale) / liquid culture (foot rot cereals); format: cell-based; details: PDB potato dextrose broth, 24° C., 4-5 days after application, compared to untreated checks, read-out: disease control (inhibition of growth, photometric)
Procedure: as §1, with “Monographella nivalis (Microdochium nivale)/Liquid” for “Glomerella Lagenarium (Colletotrichum lagenarium)/Liquid”, “(Foot Rot Cereals)” for “(Anthracnose)”, “determined” for “measured”, “4-5” for “3 to 4”

[3] = system: Mycosphaerella Graminicola (Septoria tritici); experiment: Mycosphaerella graminicola (Septoria tritici) / liquid culture (Septoria blotch); format: cell-based; details: Zymoseptoria tritici, PDB potato dextrose broth, 24° C., 4 to 5 days after application, compared to untreated checks, read-out: disease control (inhibition of growth, photometric)
Procedure: (§2) Mycosphaerella Graminicola (Septoria tritici)/Liquid Culture (Septoria Blotch) Conidia of the fungus from cryogenic storage are directly mixed into nutrient broth (PDB potato dextrose broth). After placing a (DMSO) solution of test compound into a microtiter plate (96-well format), the nutrient broth containing the fungal spores is added. The test plates are incubated at 24° C. and the inhibition of growth is determined photometrically 4 to 5 days after application.

[4] = system: Phaeosphaeria nodorum (Septoria nodorum); experiment: Phaeosphaeria nodorum (Septoria nodorum) / wheat / leaf disc preventative (glume blotch); format: in vivo; details: Parastagonospora nodorum, foliar, 120 h, wheat leaf segments cv. Kanzler, inoculated 2 days after application, assessed 5-7 days after application, compared to untreated, read-out: disease control
Procedure: Phaeosphaeria nodorum (Septoria nodorum)/Wheat/Leaf Disc Preventative (Glume Blotch) Wheat leaf segments cv. Kanzler are placed on agar in a multiwell plate (24-well format) and sprayed with the formulated test compound diluted in water. The leaf disks are inoculated with a spore suspension of the fungus 2 days after application. The inoculated test leaf disks are incubated at 20° C. and 75% rh under a light regime of 12 h light/12 h darkness in a climate cabinet and the activity of a compound is assessed as percent disease control compared to untreated when an appropriate level of disease damage appears in untreated check leaf disks (5-7 days after application).

[5] = system: Mycosphaerella arachidis (Cercospora arachidicola); experiment: Mycosphaerella arachidis (Cercospora arachidicola) / liquid culture (early leaf spot); format: cell-based; details: PDB potato dextrose broth, 24° C., 4-5 days after application, compared to untreated checks, read-out: disease control (inhibition of growth, photometric)
Procedure: as §2, with “arachidis (Cercospora arachidicola)/Liquid” for “Graminicola (Septoria tritici)/Liquid”, “(Early Leaf Spot)” for “(Septoria Blotch)”, “4-5” for “4 to 5”

[6] = system: Puccinia Recondite f. Sp. Tritici; experiment: Puccinia recondita f. sp. tritici / wheat / leaf disc preventative (brown rust); format: in vivo; details: foliar, wheat leaf segments cv. Kanzler, inoculated 1 day after application, assessed 7-9 days after application, compared to untreated, read-out: disease control
Procedure: Puccinia Recondite f. Sp. Tritici/Wheat/Leaf Disc Preventative (Brown Rust) Wheat leaf segments cv. Kanzler are placed on agar in multiwell plates (24-well format) and sprayed with the formulated test compound diluted in water. The leaf disks are inoculated with a spore suspension of the fungus 1 day after application. The inoculated leaf segments are incubated at 19° C. and 75% rh under a light regime of 12 h light/12 h darkness in a climate cabinet and the activity of a compound is assessed as percent disease control compared to untreated when an appropriate level of disease damage appears in untreated check leaf segments (7-9 days after application).

SMILES | inhibition at 200 ppm [1] [%] | inhibition at 200 ppm [2] [%] | inhibition at 200 ppm [3] [%] | pest or weed control at 200 ppm [4] [%] | inhibition at 200 ppm [5] [%] | pest or weed control at 200 ppm [6] [%]
COc1ccnc(C(=O)N[C@@H](C)C(=O)ON(C)C(c2cc(C)cc(C)c2)c2cc(C)cc(C)c2)c1O [I.x.01, [bis(3,5-dimethylphenyl)methyl-methyl-amino] (2S)-2-[(3-hydroxy-4-methoxy-pyridine-2-carbonyl)amino]propanoate] | ≥ 80 | ≥ 80 | ≥ 80 | – | – | –
COc1ccnc(C(=O)N[C@@H](C)C(=O)ON(C)C(c2ccccc2)c2ccc3ccccc3c2)c1O (stereo partly drawn) [I.r.01, [methyl-[2-naphthyl(phenyl)methyl]amino] (2S)-2-[(3-hydroxy-4-methoxy-pyridine-2-carbonyl)amino] propanoate] | – | – | – | ≥ 80 | – | –
CCC(c1ccc(Cl)cc1)(c1ccc(Cl)cc1)N(C)OC(=O)[C@H](C)NC(=O)c1nccc(OC)c1O [I.u.03, [1,1-bis(4-chlorophenyl)propyl-methyl-amino] (2S)-2-[(3-hydroxy-4-methoxy-pyridine-2-carbonyl)amino]propanoate] | – | ≥ 80 | ≥ 80 | – | ≥ 80 | –
COc1ccnc(C(=O)N[C@@H](C)C(=O)ON(C)C(c2ccccc2)C2CC2)c1O (stereo partly drawn) [I.e.01, [[cyclopropyl(phenyl)methyl]-methyl-amino] (2S)-2-[(3-hydroxy-4-methoxy-pyridine-2-carbonyl)amino] propanoate] | – | – | ≥ 80 | ≥ 80 | – | –
COc1ccnc(C(=O)N[C@@H](C)C(=O)ON(C)C(c2ccc(C(C)(C)C)cc2)c2ccc(C(C)(C)C)cc2)c1O [I.aa.01, [bis(4-tert-butylphenyl)methyl-methyl-amino] (2S)-2-[(3-hydroxy-4-methoxy-pyridine-2-carbonyl)amino]propanoate] | – | ≥ 80 | ≥ 80 | – | – | –
COc1ccnc(C(=O)N[C@@H](C)C(=O)ON(C)C(c2ccccc2)C2CCCCC2)c1O (stereo partly drawn) [I.j.01, [[cyclohexyl(phenyl)methyl]-methyl-amino] (2S)-2-[(3-hydroxy-4-methoxy-pyridine-2-carbonyl)amino] propanoate] | – | – | – | ≥ 80 | – | –
COc1ccnc(C(=O)N[C@@H](C)C(=O)ON(C)C(c2ccccc2)c2ccc(Cl)cc2)c1O (stereo partly drawn) [I.o.01, [[(4-chlorophenyl)-phenyl-methyl]-methyl-amino] (2S)-2-[(3-hydroxy-4-methoxy-pyridine-2-carbonyl)amino]propanoate] | ≥ 80 | – | ≥ 80 | ≥ 80 | ≥ 80 | ≥ 80
COc1ccnc(C(=O)N[C@@H](C)C(=O)ON(C)C(c2ccc(F)cc2)c2ccc(F)cc2)c1OC(C)=O [I.s.13, [bis(4-fluorophenyl)methyl-methyl-amino] (2S)-2-[(3-acetoxy-4-methoxy-pyridine-2-carbonyl)amino]propanoate] | – | – | ≥ 80 | ≥ 80 | ≥ 80 | ≥ 80
COc1ccnc(C(=O)N[C@@H](C)C(=O)ON(C)C(c2ccc3ccccc3c2)C2CC2)c1O (stereo partly drawn) [I.g.01, [[cyclopropyl(2-naphthyl)methyl]-methyl-amino] (2S)-2-[(3-hydroxy-4-methoxy-pyridine-2-carbonyl)amino] propanoate] | – | – | – | ≥ 80 | – | –
COc1ccnc(C(=O)N[C@@H](C)C(=O)ON(C)C(c2ccccc2)C(C)C)c1O (stereo partly drawn) [I.d.01, [methyl-(2-methyl-1-phenyl-propyl)amino] (2S)-2-[(3-hydroxy-4-methoxy-pyridine-2-carbonyl)amino] propanoate] | – | – | ≥ 80 | – | ≥ 80 | ≥ 80
COc1ccnc(C(=O)N[C@@H](C)C(=O)ON(C)C(C)(c2ccc(F)cc2)c2ccc(Cl)cc2)c1O (stereo partly drawn) [I.t.02, [[1-(4-chlorophenyl)-1-(4-fluorophenyl)ethyl]-methyl-amino] (2S)-2-[(3-hydroxy-4-methoxy-pyridine-2-carbonyl)amino]propanoate] | ≥ 80 | ≥ 80 | ≥ 80 | – | ≥ 80 | ≥ 80
